# Test results taken from article PMC4701221, “Novel Promising Estrogenic Receptor Modulators: Cytotoxic and Estrogenic Activity of Benzanilides and Dithiobenzanilides” (PLoS ONE, 2016).
# How the values were obtained:
# MTT assay, MCF-12A = type: cell-based; conditions: human, MCF-12A cells (non-tumorigenic breast epithelial), read-out: Cytotoxic activity IC50, MCF-12A
# Description: (§1) The cell lines used in the cytotoxicity study, besides MCF-12A, were purchased from European Collection of Cell Culture (ECACC, Salisbury, UK): HEK293 (human embryonic kidney, ATTC no. CRL-1573), A549 (Human lung carcinoma, ECACC no. 86012804), CCD39Lu (Human lung fibroblasts, ECACC no. 90110512), MCF-7 (Human breast adenocarcinoma, ECACC no. 86012803) and MDA-MB-231 (Human breast adenocarcinoma ECACC no. 92020424). Cell lines were cultured in DMEM medium without phenol red and supplemented with 10% (v/v) FBS, 1% penicillin-streptomycin and 1% L-glutamine. MCF-12A (ATTC no. […]) was purchased from American Type Culture Collection (ATCC Manassas, VA 20110 USA). MCF-12A cells were kept in 1:1 mixture of Dulbecco’s modified Eagle’s medium and Ham’s F12 medium, 20 ng/ml human epidermal growth factor, 100 ng/ml cholera toxin, 0.01 mg/ml bovine insulin, 500 ng/ml hydrocortisone and 5% horse serum. All cell lines were cultured at 37°C, in a humidified atmosphere containing 5% CO2.
# (§2) Compounds were dissolved in DMSO to the final concentration of […]. A549, CCD39Lu, MCF-7, MDA-MB-231 and MCF-12A cells were seeded in 96 wells plates at density 2x10^4 cells/well and incubated overnight as described above. Subsequently, cells were treated with tested compounds at concentrations: 100 μM; 50 μM; 25μM; 12.5μM; 6 μM; 3 μM; 1.5 μM. […] Cells were incubated 72 h at 37°C in a humidified atmosphere containing 5% CO2 in the cell culture media appropriate for each cell line. Then, the medium was aspirated and 170 μl MTT solution (5mg/ml) was added to each well. Plates were incubated for 2 hours at 37°C, and then plates were centrifuged at 1200 rpm for 3 minutes. The formazan crystals were dissolved in 200 μl DMSO and plates were further agitated on a plate shaker at 300–500 rpm for 10 minutes. Absorbance at 570 nm (with reference wavelenght 650 nm) was measured using a plate reader (Biotek Instruments, Elx-800). Cell viability was calculated as a percentage relative to the control.
# [1] = test system: ERα W383S transfected HEK293 cells; test: MTT cell viability, ERα W383S transfected HEK293 cells; type: cell-based, human; conditions: 0–100 μM, 72 h, compared to wild type ERα, Fig 6B
# Description: as §2, with “The formazan crystals were dissolved in 200 μl DMSO and plates were further agitated on a plate shaker at 300–500 rpm for 10 minutes.” left out
# Fig 6 Estrogenic and cytotoxic activity of tested compounds in HEK293 cells transfected with wild type ERα receptor or plasmids bearing mutated versions of ERα. […] Results are expressed as mean ± SEM (n = 8). * p < 0.05 was considered statistically significant. […] 48 h after transfection, cells were incubated in the presence of increasing concentrations of compounds 18 for 72 h and cell viability was measured by MTT assay. […]
# A549 cells = test: MTT assay, A549; type: cell-based; conditions: Homo sapiens, 72 h, lung adenocarcinoma, read-out: Cytotoxic activity IC50, A549
# Description: as §1, §2
# MCF-7 cells = test: Sulphorodamine B assay, MCF-7; type: cell-based, human; conditions: 72 h, Fig 2
# Description: In addition to the MTT assay, cell viability was measured by the Sulphorodamine B assay according to Vichai and Kirtikara. The MCF-7 and MDA-MB-23 cells were seeded and treated as for the MTT assay. After incubation the medium was removed and the cells were fixed with cold (4°C) trichloroacetic acid (final concentration 10%) for 1h. Than plates were washed 4 times with water and stained for 30 min, following by staining with sulforhodamine B (SRB) 0.4% in 1% acetic acid solution at room temperature for 20 min. After staining, the SRB solution was removed and the plates washed 5 times with 1% acetic acid dried. Bound SRB was solubilized with 200 μl 10 mM unbuffered Tris-base solution and plates were shaked for 10 min. The absorbance at 510 nm was measured using a plate reader (Biotek Instruments, Elx-800).
structure (smiles),measurement,setting,value
Fc1ccc(NC(=S)c2ccc(NC(=S)c3ccc(F)cc3)cc2)cc1 [Compound 18],IC50 at 72 h,"MTT assay, MCF-12A",91.5 µM
same,"Cell viability, ERα W383S transfected HEK293",[1],decrease was significantly smaller
same,IC50,A549 cells,> 100 µM
same,"Effect in SRB assay, MCF-7",MCF-7 cells,strong effect
